These are literature values, as cited in patent US12527767B2 (priority 2019, dated 2026).

In the series the test system is corneal neovascularization. The settings on record: rabbit, in vivo.

As to `O=C1O[C@H]([C@@H](O)CO)C(O)=C1O` [ascorbic acid], the corneal neovascularization entry is given as “attenuated corneal neovascularization”.
